What was measured:
Dipeptidyl peptidase 8 = Dipeptidyl peptidase 8 (Homo sapiens, UniProt Q6V1X1); assay: DPP Inhibition Assay; conditions: pH 7.5; 22 °C
Dipeptidyl peptidase 4 = Dipeptidyl peptidase 4 (Homo sapiens, UniProt P27487); assay: DPP Inhibition Assay; conditions: pH 7.5; 22 °C
Chain of Dipeptidyl peptidase 4 (P27487 whole entry): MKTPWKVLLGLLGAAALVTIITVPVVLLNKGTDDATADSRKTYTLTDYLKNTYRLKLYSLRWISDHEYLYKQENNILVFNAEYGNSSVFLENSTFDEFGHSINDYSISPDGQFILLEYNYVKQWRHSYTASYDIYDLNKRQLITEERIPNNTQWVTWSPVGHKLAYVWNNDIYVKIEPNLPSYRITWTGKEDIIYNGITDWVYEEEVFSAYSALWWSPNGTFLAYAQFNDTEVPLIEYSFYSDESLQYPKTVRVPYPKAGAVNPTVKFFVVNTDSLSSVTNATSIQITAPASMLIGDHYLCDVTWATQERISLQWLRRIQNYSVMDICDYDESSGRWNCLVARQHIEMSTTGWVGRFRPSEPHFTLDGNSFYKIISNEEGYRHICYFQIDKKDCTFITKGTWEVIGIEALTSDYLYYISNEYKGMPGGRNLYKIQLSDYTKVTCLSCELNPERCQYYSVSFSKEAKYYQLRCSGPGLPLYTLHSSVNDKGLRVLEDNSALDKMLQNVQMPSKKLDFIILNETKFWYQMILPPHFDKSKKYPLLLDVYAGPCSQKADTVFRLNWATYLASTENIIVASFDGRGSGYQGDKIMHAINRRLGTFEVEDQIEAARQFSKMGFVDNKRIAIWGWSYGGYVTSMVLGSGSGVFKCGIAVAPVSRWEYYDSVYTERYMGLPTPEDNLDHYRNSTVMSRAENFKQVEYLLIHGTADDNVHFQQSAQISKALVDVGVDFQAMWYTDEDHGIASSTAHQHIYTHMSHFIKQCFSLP

Chain of Dipeptidyl peptidase 8 (Q6V1X1 whole entry): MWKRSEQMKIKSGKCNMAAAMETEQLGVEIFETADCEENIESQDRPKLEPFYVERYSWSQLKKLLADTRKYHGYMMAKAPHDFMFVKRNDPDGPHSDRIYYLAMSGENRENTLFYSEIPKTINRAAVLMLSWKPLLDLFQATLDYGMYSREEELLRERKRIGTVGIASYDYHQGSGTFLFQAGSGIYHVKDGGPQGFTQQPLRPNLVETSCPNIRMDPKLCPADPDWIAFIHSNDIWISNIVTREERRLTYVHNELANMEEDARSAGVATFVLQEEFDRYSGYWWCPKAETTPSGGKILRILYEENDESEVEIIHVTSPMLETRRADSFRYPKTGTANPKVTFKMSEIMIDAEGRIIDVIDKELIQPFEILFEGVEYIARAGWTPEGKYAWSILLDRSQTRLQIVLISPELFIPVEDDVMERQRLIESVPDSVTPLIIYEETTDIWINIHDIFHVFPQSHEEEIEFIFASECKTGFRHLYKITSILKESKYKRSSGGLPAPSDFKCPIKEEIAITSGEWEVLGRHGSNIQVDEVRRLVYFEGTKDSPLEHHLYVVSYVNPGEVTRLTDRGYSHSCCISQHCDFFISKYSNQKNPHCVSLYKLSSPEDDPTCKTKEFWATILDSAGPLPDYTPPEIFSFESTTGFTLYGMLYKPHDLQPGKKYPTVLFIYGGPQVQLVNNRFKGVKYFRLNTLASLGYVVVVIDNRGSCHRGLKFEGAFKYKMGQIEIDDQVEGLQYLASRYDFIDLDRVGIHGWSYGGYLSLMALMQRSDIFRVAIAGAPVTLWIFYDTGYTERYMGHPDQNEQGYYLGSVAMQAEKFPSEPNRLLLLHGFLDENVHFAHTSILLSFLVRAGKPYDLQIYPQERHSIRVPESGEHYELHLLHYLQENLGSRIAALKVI

Row | Compound | Ki (Dipeptidyl peptidase 8) [µM] | Ki (Dipeptidyl peptidase 4) [nM]
1 | CC#C[C@H]1CC[C@@H](C#N)N1C(=O)[C@@H](N)C1CCCC1 [(2S,5R)-1-((2S)-2-amino-2-cyclopentylethanoyl)-5-prop-1-ynylpyrrolidine-2-carbonitrile] | > 30 | –
2 | Cn1c(=O)c2c(nc(N3CCC[C@@H](N)C3)n2Cc2ccccc2C#N)n(C)c1=O [Xanthine mimetic compound 6] | > 30 | 2
